System: peptide-specific IgG in sera of cancer patients and healthy donors
Experiment: Measurement of anti-peptide IgG in plasma by LUMINEX multiplexed flow cytometric assay
Assay type: binding, human
Details: for Total: healthy donors with significant peptide-reactive IgG / donors tested: 10 healthy donors; for Total: healthy donors with significant peptide-reactive IgG / donors tested / Total: cancer patients with significant peptide-reactive IgG / patients tested: significant when fluorescence intensity exceeded 100 at 1/100 dilution; for Total: cancer patients with significant peptide-reactive IgG / patients tested: 71 cancer patients
Summary of the method: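 Plasma diluted 1/100 incubated with peptide-coupled colour-coded beads 2 h at RT, then biotinylated goat anti-human IgG (γ-chain) 1 h and streptavidin-PE 30 min; fluorescence read by multiplexed flow cytometry, >100 counted significant. Specificity checked by three rounds of absorption on corresponding versus irrelevant SCCA peptide.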

[1] = serum of Breast Ca. patient #36, 1:100 dilution
[2] = serum of Breast Ca. patient #37, 1:100 dilution
[3] = serum of Breast Ca. patient #38, 1:100 dilution
[4] = serum of Breast Ca. patient #39, 1:100 dilution
[5] = serum of Breast Ca. patient #40, 1:100 dilution
[6] = serum of Breast Ca. patient #41, 1:100 dilution
[7] = serum of Breast Ca. patient #42, 1:100 dilution
[8] = serum of Breast Ca. patient #43, 1:100 dilution
[9] = serum of Breast Ca. patient #44, 1:100 dilution
[10] = serum of Breast Ca. patient #45, 1:100 dilution
[11] = serum of Colon Ca. patient #66, 1:100 dilution
[12] = serum of Colon Ca. patient #67, 1:100 dilution
[13] = serum of Colon Ca. patient #68, 1:100 dilution
[14] = serum of Colon Ca. patient #69, 1:100 dilution
[15] = serum of Colon Ca. patient #70, 1:100 dilution
[16] = serum of Colon Ca. patient #71, 1:100 dilution
[17] = serum of Gastric Ca. patient #56, 1:100 dilution
[18] = serum of Gastric Ca. patient #57, 1:100 dilution
[19] = serum of Gastric Ca. patient #58, 1:100 dilution
[20] = serum of Gastric Ca. patient #59, 1:100 dilution
[21] = serum of Gastric Ca. patient #60, 1:100 dilution
[22] = serum of Gastric Ca. patient #61, 1:100 dilution
[23] = serum of Gastric Ca. patient #62, 1:100 dilution
[24] = serum of Gastric Ca. patient #63, 1:100 dilution
[25] = serum of Gastric Ca. patient #64, 1:100 dilution
[26] = serum of Gastric Ca. patient #65, 1:100 dilution
[27] = serum of Healthy Donor #1, 1:100 dilution
[28] = serum of Healthy Donor #2, 1:100 dilution
[29] = serum of Healthy Donor #3, 1:100 dilution
[30] = serum of Healthy Donor #4, 1:100 dilution
[31] = serum of Healthy Donor #5, 1:100 dilution
[32] = serum of Healthy Donor #6, 1:100 dilution
[33] = serum of Healthy Donor #7, 1:100 dilution
[34] = serum of Healthy Donor #8, 1:100 dilution
[35] = serum of Healthy Donor #9, 1:100 dilution
[36] = serum of Healthy Donor #10, 1:100 dilution
[37] = serum of Pancreas Ca. patient #46, 1:100 dilution
[38] = serum of Pancreas Ca. patient #47, 1:100 dilution
[39] = serum of Pancreas Ca. patient #48, 1:100 dilution
[40] = serum of Pancreas Ca. patient #49, 1:100 dilution
[41] = serum of Pancreas Ca. patient #50, 1:100 dilution
[42] = serum of Pancreas Ca. patient #51, 1:100 dilution
[43] = serum of Pancreas Ca. patient #52, 1:100 dilution
[44] = serum of Pancreas Ca. patient #53, 1:100 dilution
[45] = serum of Pancreas Ca. patient #54, 1:100 dilution
[46] = serum of Pancreas Ca. patient #55, 1:100 dilution
[47] = serum of Uterine cervical Ca. patient #1, 1:100 dilution
[48] = serum of Uterine cervical Ca. patient #2, 1:100 dilution
[49] = serum of Uterine cervical Ca. patient #3, 1:100 dilution
[50] = serum of Uterine cervical Ca. patient #4, 1:100 dilution
[51] = serum of Uterine cervical Ca. patient #5, 1:100 dilution
[52] = serum of Uterine cervical Ca. patient #6, 1:100 dilution
[53] = serum of Uterine cervical Ca. patient #7, 1:100 dilution
[54] = serum of Uterine cervical Ca. patient #8, 1:100 dilution
[55] = serum of Uterine cervical Ca. patient #9, 1:100 dilution
[56] = serum of Uterine cervical Ca. patient #10, 1:100 dilution
[57] = serum of Uterine cervical Ca. patient #11, 1:100 dilution
[58] = serum of Uterine cervical Ca. patient #12, 1:100 dilution
[59] = serum of Uterine cervical Ca. patient #13, 1:100 dilution
[60] = serum of Uterine cervical Ca. patient #14, 1:100 dilution
[61] = serum of Uterine cervical Ca. patient #15, 1:100 dilution
[62] = serum of Uterine cervical Ca. patient #16, 1:100 dilution
[63] = serum of Uterine cervical Ca. patient #17, 1:100 dilution
[64] = serum of Uterine cervical Ca. patient #18, 1:100 dilution
[65] = serum of Uterine cervical Ca. patient #19, 1:100 dilution
[66] = serum of Uterine cervical Ca. patient #20, 1:100 dilution
[67] = serum of Uterine cervical Ca. patient #21, 1:100 dilution
[68] = serum of Uterine cervical Ca. patient #22, 1:100 dilution
[69] = serum of Uterine cervical Ca. patient #23, 1:100 dilution
[70] = serum of Uterine cervical Ca. patient #24, 1:100 dilution
[71] = serum of Uterine cervical Ca. patient #25, 1:100 dilution
[72] = serum of Uterine cervical Ca. patient #26, 1:100 dilution
[73] = serum of Uterine cervical Ca. patient #27, 1:100 dilution
[74] = serum of Uterine cervical Ca. patient #28, 1:100 dilution
[75] = serum of Uterine cervical Ca. patient #29, 1:100 dilution
[76] = serum of Uterine cervical Ca. patient #30, 1:100 dilution
[77] = serum of Uterine cervical Ca. patient #31, 1:100 dilution
[78] = serum of Uterine cervical Ca. patient #32, 1:100 dilution
[79] = serum of Uterine cervical Ca. patient #33, 1:100 dilution
[80] = serum of Uterine cervical Ca. patient #34, 1:100 dilution
[81] = serum of Uterine cervical Ca. patient #35, 1:100 dilution

For “KFMFDLFQQF (SCCA 10-19 peptide) [SCCA-derived peptide, position 10-19]”, the “Total: healthy donors with significant peptide-reactive IgG / donors tested” value was 1/10, the “Total: cancer patients with significant peptide-reactive IgG / patients tested” value was 12/71 and the Fluorescence intesity [1] was 66. The Fluorescence intesity [2] was 0, the Fluorescence intesity [3] was 27 and the Fluorescence intesity [4] was 38. For the same sequence, the Fluorescence intesity [5] was 0, the Fluorescence intesity [6] was 201 and the Fluorescence intesity [7] was 0. For the same sequence, the Fluorescence intesity [8] was 44, the Fluorescence intesity [9] was 18 and the Fluorescence intesity [10] was 55. For the same sequence, the Fluorescence intesity [11] was 5, the Fluorescence intesity [12] was 79 and the Fluorescence intesity [13] was 0. It also gave a Fluorescence intesity [14] of 2, a Fluorescence intesity [15] of 17 and a Fluorescence intesity [16] of 6. The Fluorescence intesity [17] was 38, the Fluorescence intesity [18] was 11 and the Fluorescence intesity [19] was 0. For the same sequence, the Fluorescence intesity [20] was 177, the Fluorescence intesity [21] was 4 and the Fluorescence intesity [22] was 81. For the same sequence, the Fluorescence intesity [23] was 0, the Fluorescence intesity [24] was 0 and the Fluorescence intesity [25] was 9. The Fluorescence intesity [26] was 0, the Fluorescence intesity [27] was 0 and the Fluorescence intesity [28] was 68. For the same sequence, the Fluorescence intesity [29] was 0, the Fluorescence intesity [30] was 0 and the Fluorescence intesity [31] was 8. For the same sequence, the Fluorescence intesity [32] was 0, the Fluorescence intesity [33] was 0 and the Fluorescence intesity [34] was 345. For the same sequence, the Fluorescence intesity [35] was 34, the Fluorescence intesity [36] was 0 and the Fluorescence intesity [37] was 0. It also gave a Fluorescence intesity [38] of 12, a Fluorescence intesity [39] of 206 and a Fluorescence intesity [40] of 0. For the same sequence, the Fluorescence intesity [41] was 311, the Fluorescence intesity [42] was 0 and the Fluorescence intesity [43] was 172. For the same sequence, the Fluorescence intesity [44] was 0, the Fluorescence intesity [45] was 11 and the Fluorescence intesity [46] was 0. For the same sequence, the Fluorescence intesity [47] was 25, the Fluorescence intesity [48] was 21 and the Fluorescence intesity [49] was 11. The Fluorescence intesity [50] was 5, the Fluorescence intesity [51] was 14 and the Fluorescence intesity [52] was 786. The Fluorescence intesity [53] was 14, the Fluorescence intesity [54] was 38 and the Fluorescence intesity [55] was 76. For the same sequence, the Fluorescence intesity [56] was 16, the Fluorescence intesity [57] was 21 and the Fluorescence intesity [58] was 41. It also gave a Fluorescence intesity [59] of 22, a Fluorescence intesity [60] of 22 and a Fluorescence intesity [61] of 154. It also gave a Fluorescence intesity [62] of 225, a Fluorescence intesity [63] of 50 and a Fluorescence intesity [64] of 45. For the same sequence, the Fluorescence intesity [65] was 67, the Fluorescence intesity [66] was 107 and the Fluorescence intesity [67] was 22. The Fluorescence intesity [68] was 19, the Fluorescence intesity [69] was 78 and the Fluorescence intesity [70] was 2277. For the same sequence, the Fluorescence intesity [71] was 19, the Fluorescence intesity [72] was 88 and the Fluorescence intesity [73] was 33. It also gave a Fluorescence intesity [74] of 228, a Fluorescence intesity [75] of 15 and a Fluorescence intesity [76] of 44. The Fluorescence intesity [77] was 107, the Fluorescence intesity [78] was 21 and the Fluorescence intesity [79] was 92. For the same sequence, the Fluorescence intesity [80] was 17 and the Fluorescence intesity [81] was 17.
With “LFGEKTYLFL (SCCA 107-116 peptide) [SCCA-derived peptide, position 107-116]” the “Total: healthy donors with significant peptide-reactive IgG / donors tested” value was 5/10, the “Total: cancer patients with significant peptide-reactive IgG / patients tested” value was 27/71 and the “Specificity of IgG reactive to the peptide” value (absorption assay: corresponding vs irrelevant SCCA peptide-coated wells (FIG. 3)) was “confirmed by absorption assay”. It also gave a Fluorescence intesity [1] of 211, a Fluorescence intesity [2] of 242 and a Fluorescence intesity [3] of 146. The Fluorescence intesity [4] was 149, the Fluorescence intesity [5] was 146 and the Fluorescence intesity [6] was 269. It also gave a Fluorescence intesity [7] of 219, a Fluorescence intesity [8] of 136 and a Fluorescence intesity [9] of 146. For the same sequence, the Fluorescence intesity [10] was 272, the Fluorescence intesity [11] was 40 and the Fluorescence intesity [12] was 49. The Fluorescence intesity [13] was 0, the Fluorescence intesity [14] was 20 and the Fluorescence intesity [15] was 91. For the same sequence, the Fluorescence intesity [16] was 70, the Fluorescence intesity [17] was 38 and the Fluorescence intesity [18] was 114. The Fluorescence intesity [19] was 133, the Fluorescence intesity [20] was 237 and the Fluorescence intesity [21] was 24. For the same sequence, the Fluorescence intesity [22] was 282, the Fluorescence intesity [23] was 37 and the Fluorescence intesity [24] was 29. For the same sequence, the Fluorescence intesity [25] was 67, the Fluorescence intesity [26] was 72 and the Fluorescence intesity [27] was 53. It also gave a Fluorescence intesity [28] of 297, a Fluorescence intesity [29] of 67 and a Fluorescence intesity [30] of 0. It also gave a Fluorescence intesity [31] of 331, a Fluorescence intesity [32] of 0 and a Fluorescence intesity [33] of 0. The Fluorescence intesity [34] was 454, the Fluorescence intesity [35] was 246 and the Fluorescence intesity [36] was 106. It also gave a Fluorescence intesity [37] of 0, a Fluorescence intesity [38] of 115 and a Fluorescence intesity [39] of 431. It also gave a Fluorescence intesity [40] of 30, a Fluorescence intesity [41] of 29 and a Fluorescence intesity [42] of 2. The Fluorescence intesity [43] was 286, the Fluorescence intesity [44] was 43 and the Fluorescence intesity [45] was 126. For the same sequence, the Fluorescence intesity [46] was 0, the Fluorescence intesity [47] was 20 and the Fluorescence intesity [48] was 106. For the same sequence, the Fluorescence intesity [49] was 51, the Fluorescence intesity [50] was 109 and the Fluorescence intesity [51] was 55. The Fluorescence intesity [52] was 925, the Fluorescence intesity [53] was 15 and the Fluorescence intesity [54] was 30. It also gave a Fluorescence intesity [55] of 84, a Fluorescence intesity [56] of 14 and a Fluorescence intesity [57] of 25. The Fluorescence intesity [58] was 41, the Fluorescence intesity [59] was 33 and the Fluorescence intesity [60] was 22. It also gave a Fluorescence intesity [61] of 134, a Fluorescence intesity [62] of 193 and a Fluorescence intesity [63] of 65. The Fluorescence intesity [64] was 62, the Fluorescence intesity [65] was 70 and the Fluorescence intesity [66] was 90. For the same sequence, the Fluorescence intesity [67] was 25, the Fluorescence intesity [68] was 19 and the Fluorescence intesity [69] was 75. It also gave a Fluorescence intesity [70] of 1457, a Fluorescence intesity [71] of 16 and a Fluorescence intesity [72] of 147. For the same sequence, the Fluorescence intesity [73] was 39, the Fluorescence intesity [74] was 196 and the Fluorescence intesity [75] was 19. It also gave a Fluorescence intesity [76] of 41, a Fluorescence intesity [77] of 108 and a Fluorescence intesity [78] of 19. For the same sequence, the Fluorescence intesity [79] was 170, the Fluorescence intesity [80] was 16 and the Fluorescence intesity [81] was 20.

Source: US8030443B2, “Squamous cell carcinoma antigen-derived peptide binding to HLA-A24 molecule” (Kurume University, priority 2005, dated 2011)
